# Earlier results as cited in article PMC12525602, “Identification of Selective α-Glucosidase Inhibitors via Virtual Screening with Machine Learning” (Molecules, 2025).
# System: α-glucosidase
# Conditions: Table S5 modeling dataset; activity label 1 = active, 0 = inactive; cited from earlier work
row,Compound,activity
1,COc1ccccc1Nc1nnc(-c2cc3cc(C#N)ccc3[nH]2)s1 [compound 102],0
2,CCCCCCCC/C=C\CCCCCCCCCC(=O)O [compound 98],0
3,N#Cc1ccc2[nH]c(-c3nnc(Nc4cccc(F)c4)s3)cc2c1 [compound 124],0
4,CCCCCC/C=C\CCCCCCCC(=O)O [compound 129],0

# Same assay, conditions: activity label in the 300-compound modeling dataset (Table S5); 1 = active, 0 = inactive; cited from earlier work
row,Compound,activity
1,O=c1c(O)c(-c2ccc(O)c(O)c2)oc2cc(O)ccc12 [compound 231],1
2,O=C(NNS(=O)(=O)c1ccccc1F)c1cc2cc(F)ccc2[nH]1 [compound 226],1
3,O=C(CCc1ccc(NS(=O)(=O)c2ccc(C(F)(F)F)cc2)cc1)N1CC[C@H](O)[C@H](O)C1 [compound 225],1
4,Oc1c(Cl)cc(Cl)cc1-c1nnc(/N=C(/CSc2nnc3c(n2)[nH]c2ccccc23)c2ccc(-c3ccccc3)cc2)s1 [compound 221],1
5,CCOC(=O)c1ccc(-n2c(/C=C3\OC(=O)c4c3cc(C)[nH]c4=O)ccc2CO)cc1 [compound 228],1
6,O=c1c(O)c(-c2ccc(O)cc2)oc2c(O)c(O)cc(O)c12 [compound 219],1

# Same assay, conditions: activity label of the 300-compound modeling dataset, Table S5; cited from earlier work
row,Compound,activity
1,O=C(COc1c(I)cc(Cl)c2cccnc12)c1cccc(Br)c1 [compound 268],1
2,O=C(N/N=C/C1CC(=O)c2ccccc2O1)c1ccc(O)cc1 (centres unmarked) [compound 250],1
3,Cc1ccc(/C(CSc2nnc3c(n2)[nH]c2ccccc23)=N\c2nnc(-c3ccc([N+](=O)[O-])cc3)s2)cc1 [compound 239],1
4,O=C(/C=C/c1ccc(O)cc1)c1cccc2[nH]c(=O)oc12 [compound 247],1
5,Cc1ccc(/C(CSc2nnc3c(n2)[nH]c2ccccc23)=N\c2nnc(-c3ccc(Cl)c(Cl)c3)s2)cc1 [compound 277],1
6,Cn1ccnc1SC(=O)c1ccc(-c2ccccc2F)o1 [compound 272],1

# Same assay, conditions: activity label of the modeling dataset (Table S5), α-glucosidase; 1 = active, 0 = inactive; cited from earlier work
row,Compound,activity
1,N#Cc1c(-c2ccncc2)cc(-c2ccc([N+](=O)[O-])cc2)c(C#N)c1N [compound 18],0
2,CCCCCCCCCCCCCCCCCC(N)=O [compound 27],0
3,Brc1ccc(Cn2cc(CSc3nnc(COc4cccc5cccnc45)o3)nn2)cc1 [compound 33],0
4,Fc1ccc(Cn2cc(CSc3nnc(COc4cccc5cccnc45)o3)nn2)cc1F [compound 29],0
5,Cc1ccccc1Nc1nnc(-c2cc3cc(C#N)ccc3[nH]2)s1 [compound 14],0

# Same assay, conditions: activity label of the modeling dataset, Table S5 (1 = active, 0 = inactive); cited from earlier work
row,Compound,activity
1,CC1CCCN(c2ccc(/C=N/Nc3nc(-c4ccc(F)cc4F)cs3)cc2)C1 (centres unmarked) [compound 78],0
2,C[C@@H]1O[C@@H](Oc2c(-c3ccc(O)c(O)c3)oc3cc(O)cc(O)c3c2=O)[C@H](O)[C@H](O)[C@H]1O [compound 45],0
3,CCSc1nnc(COc2cccc3cccnc23)o1 [compound 63],0
4,N#Cc1ccc2[nH]c(-c3nnc(Nc4ccc([N+](=O)[O-])cc4)s3)cc2c1 [compound 60],0

# Same assay, conditions: activity label of the modeling dataset, Table S5; cited from earlier work
row,Compound,activity
1,O=C(CSc1nc2ccccc2cc1-c1nc2ccccc2[nH]1)Nc1cccc(Cl)c1 [compound 149],1
2,COc1cc(/C=N/N=C2\C(=O)Nc3ccccc32)ccc1OCc1cn(Cc2ccccc2C)nn1 [compound 142],0
3,COc1cccc(C(=O)C2=C(O)c3ccccc3S(=O)(=O)C2CC(=O)Nc2ccc(Cl)cc2)c1 (centres unmarked) [compound 177],1
4,O=C1/C(=N\N=C\c2ccc(OCc3cn(Cc4ccccc4F)nn3)cc2)c2ccccc2N1c1ccc(Br)cc1 [compound 148],0

# Same assay, conditions: activity label of the modeling dataset, sheet Table S5; 1 = active, 0 = inactive; cited from earlier work
row,Compound,activity
1,CC(C)=CCn1c(=O)oc2c(C(=O)/C=C/c3ccc(O)c(F)c3)cccc21 [compound 293],1
2,Cc1ccc(-c2cc(C(F)(F)F)nn2-c2ccc(S(=O)(=O)NC(=O)c3ccc(C)c([N+](=O)[O-])c3)cc2)cc1 [compound 281],1
3,COC(=O)Cn1c(=O)oc2c(C(=O)/C=C/c3ccc(O)c(F)c3)cccc21 [compound 284],1
